According to patent US10736898B2, “Positive allosteric modulators of the muscarinic acetylcholine receptor M4” (Vanderbilt University, priority 2017, dated 2020):

Tests used:
[1] = In vivo pharmacokinetics in dogs (IV and PO)
Experimental: (§1) Compound 1 was evaluated in several in vivo studies to investigate its metabolism and pharmacokinetics.
Dogs (male, Beagle, weighing approximately 8-15 kg, n=2) were dosed intravenously (0.5 mg/kg) via cephalic vein and orally (3 mg/kg) by gavage. Blood samples were collected from the jugular vein via needlestick. Blood samples were obtained at 0.083, 0.25, 0.5, 1, 2, 4, 6, 10, and 24 hours (IV) and 0.25, 0.5, 1, 2, 4, 6, 10, and 24 hours (PO) and plasma harvested for analysis. Sample preparation and bioanalysis was conducted as described above.

[2] = test system: 68 primary molecular targets; experiment: Eurofins LeadProfilingScreen (binding); conditions: at 10 μM (binding); 68 targets
Excerpt: The screen includes 68 primary molecular targets, including several CNS targets recommended by the EMEA to evaluate drug dependence potential.

Dog Fu (plasma) = type: in vitro ADME
Experimental: (§2) Compound 1 was evaluated in several well-known in vitro assays to investigate both metabolism and pharmacokinetics. Bidirectional permeability/efflux was determined in MDCK-MDR1 cells, which originate from transfection of Madin Darby canine kidney (MDCK) cells with the MDR1 gene. These assays were performed according to known methods as generally described in the following references: Conde-Ceide et al. ACS Med. Chem. Lett. 2015, 6, 716-720; Morris et al. J. Med. Chem. 2014, 57, 10192-10197; and Bubser et al. ACS Chem. Neurosci. 2014, 5, 920-942.

[3] = In vivo pharmacokinetics in rats (IV and PO)
Experimental: as §1
Male Sprague-Dawley rats (n=2) weighing around 300 g were purchased from Harlon Laboratories (Indianapolis, Ind.) and implanted with catheters in the carotid artery and jugular vein. For intravenous (IV) administration, male Sprague-Dawley rats (n=2) were each administered a single 0.2 mg/kg dose of the test article via a jugular cannula and then blood samples were collected via a carotid artery catheter at 0.033, 0.117, 0.25, 0.5, 1, 2, 4, 7, 12, and 24 hours post-dosing from each animal. For oral (PO) administration, fasted male Sprague-Dawley rats (n=2) were each administered a single 3 mg/kg dose of the test article via oral gavage and then blood samples were collected via a carotid artery catheter at 0.25, 0.5, 1, 2, 4, 7, 12, and 24 hours post-dosing from each animal. Upon sampling, blood was collected into chilled, EDTA-fortified tubes and immediately placed on wet ice. Samples were then centrifuged for 10 minutes at 3500 rcf (at 4° C.) to obtain plasma. The plasma samples were stored at −80° C. until analysis. During the analysis, the samples were thawed on bench at room temperature and 20 μL was transferred to 96-well plate. 120 μL of 50 nM carbamazepine in acetonitrile was added to the plasma sample to precipitate the protein and provide the internal standard. After vortex and centrifugation, 75 μL of supernatant was transferred to another 96-well plate that contained 75 μL of water. 10 μL of the diluted supernatant was injected onto an AB Sciex 4000 or 5500 LC-MS/MS system for quantitation. The detection range for analyte was 0.5 to 5000 ng/mL utilizing a quadratic curve with 1/x^2 weighting. Sciex Analyst 1.4.2 software was used for data acquisition and quantitation. Pharmacokinetic parameters were determined from individual animal data using non-compartmental analysis (Model 201) in WinNonlin (v5.3, Pharsight Corp., Mountain View, Calif.).

[4] = Rat brain:plasma distribution; type: in vivo
Experimental: as §1

Dog CLint = type: in vitro ADME
Experimental: as §2

P450 1A2 = target: T1, P450 1A2 (Homo sapiens, UniProt P05177); experiment: P450 1A2 inhibition; type: in vitro ADME
T1 sequence (P05177 1-516): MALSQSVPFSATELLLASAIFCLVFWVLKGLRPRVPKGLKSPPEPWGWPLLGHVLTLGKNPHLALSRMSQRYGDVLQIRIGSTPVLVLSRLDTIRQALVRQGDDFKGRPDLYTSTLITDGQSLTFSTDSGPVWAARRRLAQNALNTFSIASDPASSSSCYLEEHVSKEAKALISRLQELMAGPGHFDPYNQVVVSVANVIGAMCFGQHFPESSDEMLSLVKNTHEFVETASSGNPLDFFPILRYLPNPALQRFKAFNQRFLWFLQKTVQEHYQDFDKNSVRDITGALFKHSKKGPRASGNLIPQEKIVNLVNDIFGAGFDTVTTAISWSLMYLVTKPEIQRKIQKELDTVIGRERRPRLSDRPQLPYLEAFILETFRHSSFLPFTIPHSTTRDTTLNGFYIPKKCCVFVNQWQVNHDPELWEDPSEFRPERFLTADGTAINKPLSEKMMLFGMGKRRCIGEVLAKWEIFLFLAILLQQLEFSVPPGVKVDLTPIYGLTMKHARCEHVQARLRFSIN
Experimental: as §2

Dog oral F ([1]; 3 mg/kg PO): 28%
half-life ([1]; male, Beagle, dog, plasma, read-out: Dog Elim. t1/2 (converted)): 2.4 h
clearance ([1]; male, Beagle, plasma, dog, IV 0.5 mg/kg, read-out: Dog CLp): 24 mL/min/kg
Vd ([1]; male, Beagle, plasma, dog, IV 0.5 mg/kg, read-out: Dog Vss): 2.3 L/kg
inhibition of each target in the LeadProfilingScreen [2]: < 50%
fraction unbound (Dog Fu (plasma)): 0.072
Rat oral F ([3]; 3 mg/kg PO): >100%
clearance ([3]; male, Sprague-Dawley, plasma, rat, IV 0.2 mg/kg, read-out: Rat CLp): 7.1 mL/min/kg
Vd ([3]; male, Sprague-Dawley, plasma, rat, IV 0.2 mg/kg, read-out: Rat Vss): 1.1 L/kg
half-life ([3]; male, Sprague-Dawley, rat, plasma, read-out: Rat Elim. t1/2 (converted)): 1.9 h
Kp [4]: 0.74
Kp uu ([4]; unbound): 0.5
CLint scaled (Dog CLint): 17 mL/min/kg
IC50 (P450 1A2): 23 µM
Structure (SMILES): Cc1nc(C)c2c(n1)sc1c(NCc3ccc(C(C)(C)O)cc3)ncnc12 [Compound 1, 2-(4-(((7,9-Dimethylthieno[2,3-d:4,5-d′]dipyrimidin-4-yl)amino)methyl)phenyl)propan-2-ol]
